Measured values reported in US20050004092A1, “Penem derivatives and antimicrobial agent containing the same” (DAIICHI SUNTORY PHARMA CO., LTD., priority 1995, published 2005).
In brackets after ≈: the same amount, converted by molar mass.

What was measured:
Assay in all cases: antibacterial activity (MIC), standard in vitro dilution test
[1] = tested on: Staphylococcus aureus 209P JC-1 strain; assay type: cell-based; conditions: test bacterium strain 10^5 cfu/ml; for MIC: Staphylococcus aureus, 209P, read-out: MIC, Staphylococcus aureus 209P JC-1 strain
From the text: (§1) With respect to certain compounds (I) of the present invention, their general antibacterial activities and their antibacterial activities (MIC) against various methicillin-resistant strains of Staphylococcus aureus (methicillin-resistant Staphylococcus aureus: MRSA) were investigated. The results will be shown next.
(§2) Of the investigations, the general antibacterial activities were investigated by a standard in vitro dilution test.
(§3) As test bacteria, Staphylococcus aureus 209P JC-1, Escherichia coli NIHJ JC-2 and MRSAs were used.

[2] = tested on: Escherichia coli NIHJ JC-2 strain; assay type: cell-based; conditions: for MIC: Escherichia coli, NIHJJC2, test bacterium strain 10^5 cfu/ml, read-out: MIC, Escherichia coli NIHJ JC-2 strain; for MIC, Escherichia coli NIHJ JC-2 strain: test bacterium strain 10^5 cfu/ml
From the text: as §1, §2, §3

[3] = tested on: MRSA 33 high-resist. (IPM resist.); assay type: cell-based, Staphylococcus aureus; conditions: test bacterium strain 10^5 cfu/ml; for MIC: Staphylococcus aureus, MRSA, read-out: MIC, MRSA 33 high-resist. (IPM resist.)
From the text: as §1, §2, §3

[4] = tested on: MRSA 31 high-resist. (IPM resist.); assay type: cell-based, Staphylococcus aureus; conditions: test bacterium strain 10^5 cfu/ml; for MIC: Staphylococcus aureus, MRSA, read-out: MIC, MRSA 31 high-resist. (IPM resist.)
From the text: as §1, §2, §3

Structure (SMILES) | MIC [1] [µg/mL] | MIC [2] [µg/mL] | MIC [3] [µg/mL] | MIC [4] [µg/mL] | MIC, Escherichia coli NIHJ JC-2 strain [2] [µg/mL] | MIC, MRSA 33 high-resist. (IPM resist.) [3] [µg/mL] | MIC, MRSA 31 high-resist. (IPM resist.) [4] [µg/mL] | MIC, Staphylococcus aureus 209P JC-1 strain [1] [µg/mL]
CC[C@H](O)[C@@H]1C(=O)N2C(C(=O)O)=C(S[C@H]3CCN(c4ncccn4)C3)S[C@H]12 [Ex. 209] | 0.39 (≈ 0.955 µM) | 25 (≈ 61.2 µM) | 6.25 (≈ 15.3 µM) | 6.25 (≈ 15.3 µM) | – | – | – | –
CC[C@H](O)[C@@H]1C(=O)N2C(C(=O)O)=C(SCc3ccncc3)S[C@H]12 [Ex. 224] | 0.2 (≈ 0.567 µM) | 3.13 (≈ 8.88 µM) | 3.13 (≈ 8.88 µM) | 3.13 (≈ 8.88 µM) | – | – | – | –
CC[C@H](O)[C@@H]1C(=O)N2C(C(=O)O)=C(SC3CCN(C4CCCC4)C3)S[C@H]12 (stereo partly drawn) [Ex. 227] | 0.1 (≈ 0.251 µM) | 0.78 (≈ 1.96 µM) | 6.25 (≈ 15.7 µM) | 6.25 (≈ 15.7 µM) | – | – | – | –
CC[C@H](O)[C@@H]1C(=O)N2C(C(=O)O)=C(SC3CCc4cccnc43)S[C@H]12 (stereo partly drawn) [Ex. 231] | 0.1 (≈ 0.264 µM) | – | – | – | 3.13 (≈ 8.27 µM) | 1.56 (≈ 4.12 µM) | 1.56 (≈ 4.12 µM) | –
CC[C@H](O)[C@@H]1C(=O)N2C(C(=O)O)=C(SC3CCc4cccnc43)S[C@H]12 (stereo partly drawn) [Ex. 232] | – | – | – | – | 12.5 (≈ 33 µM) | 3.13 (≈ 8.27 µM) | 3.13 (≈ 8.27 µM) | 0.05 (≈ 0.132 µM)
CC[C@H](O)[C@@H]1C(=O)N2C(C(=O)O)=C(SC3CCN(C4CC4)C3)S[C@H]12 (stereo partly drawn) [Ex. 235] | 0.1 (≈ 0.27 µM) | 0.78 (≈ 2.11 µM) | 6.25 (≈ 16.9 µM) | 6.25 (≈ 16.9 µM) | – | – | – | –
CC[C@H](O)[C@@H]1C(=O)N2C(C(=O)O)=C(SCc3ccc(Cl)c(Cl)c3)S[C@H]12 [Ex. 236] | 0.1 (≈ 0.238 µM) | 50 (≈ 119 µM) | 1.56 (≈ 3.71 µM) | 1.56 (≈ 3.71 µM) | – | – | – | –
CC[C@H](O)[C@@H]1C(=O)N2C(C(=O)O)=C(SCc3ccc(C#N)cc3)S[C@H]12 [Ex. 239] | 0.1 (≈ 0.266 µM) | 12.5 (≈ 33.2 µM) | 1.56 (≈ 4.14 µM) | 0.78 (≈ 2.07 µM) | – | – | – | –
CC[C@H](O)[C@@H]1C(=O)N2C(C(=O)O)=C(S[C@H]3CCN(C(=N)CF)C3)S[C@H]12 [Ex. 253] | 0.1 (≈ 0.257 µM) | 0.78 (≈ 2 µM) | 6.25 (≈ 16 µM) | 6.25 (≈ 16 µM) | – | – | – | –
CC[C@H](O)[C@@H]1C(=O)N2C(C(=O)O)=C(SC3CN(C=N)C3)S[C@H]12 [Ex. 254] | 0.1 (≈ 0.291 µM) | 0.78 (≈ 2.27 µM) | 6.25 (≈ 18.2 µM) | 6.25 (≈ 18.2 µM) | – | – | – | –
CC[C@H](O)[C@@H]1C(=O)N2C(C(=O)O)=C(SC3CN(C(C)=N)C3)S[C@H]12 [Ex. 255] | 0.1 (≈ 0.28 µM) | 0.78 (≈ 2.18 µM) | 3.13 (≈ 8.76 µM) | 3.13 (≈ 8.76 µM) | – | – | – | –

More lines, now with the values ahead:

MIC [1] [µg/mL] | MIC [2] [µg/mL] | MIC [3] [µg/mL] | MIC [4] [µg/mL] | MIC, Escherichia coli NIHJ JC-2 strain [2] [µg/mL] | MIC, MRSA 33 high-resist. (IPM resist.) [3] [µg/mL] | MIC, MRSA 31 high-resist. (IPM resist.) [4] [µg/mL] | MIC, Staphylococcus aureus 209P JC-1 strain [1] [µg/mL] | Structure (SMILES)
0.1 (≈ 0.203 µM) | 0.39 (≈ 0.792 µM) | 6.25 (≈ 12.7 µM) | 6.25 (≈ 12.7 µM) | – | – | – | – | CC[C@H](O)[C@@H]1C(=O)N2C(C(=O)O)=C(S[C@H]3CCN(CC(=O)c4ccc5c(c4)OCO5)C3)S[C@H]12 [Ex. 207]
0.1 (≈ 0.222 µM) | 12.5 (≈ 27.7 µM) | 6.25 (≈ 13.9 µM) | 6.25 (≈ 13.9 µM) | – | – | – | – | CC[C@H](O)[C@@H]1C(=O)N2C(C(=O)O)=C(S[C@H]3CCN(CCOc4ccccc4)C3)S[C@H]12 [Ex. 210]
0.1 (≈ 0.224 µM) | 6.25 (≈ 14 µM) | 3.13 (≈ 7.01 µM) | 6.25 (≈ 14 µM) | – | – | – | – | CC[C@H](O)[C@@H]1C(=O)N2C(C(=O)O)=C(S[C@H]3CCN(C4Cc5ccccc5C4)C3)S[C@H]12 [Ex. 214]
0.1 (≈ 0.21 µM) | 3.13 (≈ 6.57 µM) | 6.25 (≈ 13.1 µM) | 6.25 (≈ 13.1 µM) | – | – | – | – | CC[C@H](O)[C@@H]1C(=O)N2C(C(=O)O)=C(S[C@H]3CCN(CCCC(=O)c4ccccc4)C3)S[C@H]12 [Ex. 215]
0.2 (≈ 0.42 µM) | 25 (≈ 52.5 µM) | 6.25 (≈ 13.1 µM) | 6.25 (≈ 13.1 µM) | – | – | – | – | CC[C@H](O)[C@@H]1C(=O)N2C(C(=O)O)=C(SC3CCN(C(=N)NC(=O)c4ccccc4)C3)S[C@H]12 (stereo partly drawn) [Ex. 218]
0.05 (≈ 0.132 µM) | 12.5 (≈ 33.1 µM) | 1.56 (≈ 4.13 µM) | 1.56 (≈ 4.13 µM) | – | – | – | – | CC[C@H](O)[C@@H]1C(=O)N2C(C(=O)O)=C(SC3Cc4ccccc4C3)S[C@H]12 [Ex. 225]
0.2 (≈ 0.432 µM) | 0.39 (≈ 0.843 µM) | 6.25 (≈ 13.5 µM) | 6.25 (≈ 13.5 µM) | – | – | – | – | CC[C@H](O)[C@@H]1C(=O)N2C(C(=O)O)=C(SC3CCN(CC(=O)c4ccccc4C)C3)S[C@H]12 (stereo partly drawn) [Ex. 226]
0.05 (≈ 0.112 µM) | 12.5 (≈ 28 µM) | 3.13 (≈ 7.01 µM) | 3.13 (≈ 7.01 µM) | – | – | – | – | CC[C@H](O)[C@@H]1C(=O)N2C(C(=O)O)=C(SC3CCN(C/C=C/c4ccccc4)C3)S[C@H]12 (stereo partly drawn) [Ex. 228]
0.1 (≈ 0.242 µM) | 12.5 (≈ 30.2 µM) | 3.13 (≈ 7.57 µM) | 3.13 (≈ 7.57 µM) | – | – | – | – | CC[C@H](O)[C@@H]1C(=O)N2C(C(=O)O)=C(S[C@H]3CCN(c4nccs4)C3)S[C@H]12 [Ex. 229]
0.2 (≈ 0.52 µM) | 0.78 (≈ 2.03 µM) | 6.25 (≈ 16.3 µM) | 6.25 (≈ 16.3 µM) | – | – | – | – | CC[C@H](O)[C@@H]1C(=O)N2C(C(=O)O)=C(S[C@H]3CCN(CC4CC4)C3)S[C@H]12 [Ex. 230]
0.2 (≈ 0.446 µM) | 1.56 (≈ 3.48 µM) | 6.25 (≈ 13.9 µM) | 6.25 (≈ 13.9 µM) | – | – | – | – | CC[C@H](O)[C@@H]1C(=O)N2C(C(=O)O)=C(S[C@H]3CCN(C(=N)Nc4ccccc4)C3)S[C@H]12 [Ex. 243]
0.2 (≈ 0.519 µM) | 1.56 (≈ 4.05 µM) | 6.25 (≈ 16.2 µM) | 6.25 (≈ 16.2 µM) | – | – | – | – | CCC(=N)N1CC[C@H](SC2=C(C(=O)O)N3C(=O)[C@@H]([C@@H](O)CC)[C@H]3S2)C1 [Ex. 250]
0.05 (≈ 0.108 µM) | 12.5 (≈ 27 µM) | 1.56 (≈ 3.37 µM) | 3.13 (≈ 6.77 µM) | – | – | – | – | CC[C@H](O)[C@@H]1C(=O)N2C(C(=O)O)=C(S[C@H]3CCN(c4ccc(NC(C)=N)cc4)C3)S[C@H]12 [Ex. 257]
